Laboratory results published in patent US10329289B2, “6,7-dihydro-5H-pyrrolo[3,4-B]pyridin-5-one allosteric modulators of the M4 muscarinic acetylcholine receptor” (Merck Sharp & Dohme Corp., priority 2015, dated 2019).

These compounds were tested against T1, human M4 muscarinic acetylcholine receptor (Homo sapiens, UniProt P08173) (assay: human FLIPR-based M4 PAM assay (Ca2+ mobilization, CHO-K1 cells with human M4 receptor and Gαqi5)). Settings: acetylcholine at 20% of maximum response, read-out: M4 PAM IP.
T1 construct: expressed in transfected cells; host or cells: CHO-K1
T1 sequence (P08173 1-479): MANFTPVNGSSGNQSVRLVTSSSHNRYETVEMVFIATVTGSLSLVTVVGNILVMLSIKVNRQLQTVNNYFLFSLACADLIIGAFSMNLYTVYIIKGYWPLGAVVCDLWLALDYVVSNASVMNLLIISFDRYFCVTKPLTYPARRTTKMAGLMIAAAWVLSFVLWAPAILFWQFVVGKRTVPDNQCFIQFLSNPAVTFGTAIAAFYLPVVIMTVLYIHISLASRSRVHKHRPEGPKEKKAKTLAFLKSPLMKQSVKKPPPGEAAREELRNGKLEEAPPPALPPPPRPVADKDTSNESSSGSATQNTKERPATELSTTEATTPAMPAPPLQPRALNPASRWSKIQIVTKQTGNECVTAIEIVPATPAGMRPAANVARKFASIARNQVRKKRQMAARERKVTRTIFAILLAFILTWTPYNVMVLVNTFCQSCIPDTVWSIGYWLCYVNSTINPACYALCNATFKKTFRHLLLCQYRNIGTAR
Type: cell-based
How it was run: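 Calcium-mobilization (FLIPR) readout in dye-loaded CHO-K1 cells co-expressing human M4 receptor and Gαqi5. Potentiation measured against acetylcholine at a concentration giving 20% of maximal response, with an optional 70% addition; the reported value is the curve inflection point from a 4-parameter logistic fit.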

| Compound | EC50 |
| --- | --- |
| Cc1cc2c(nc1N1CCC(Oc3cnc4c(c3)oc(=O)n4C)CC1)CNC2=O [Example 136, 3-methyl-6-((1-(3-methyl-5-oxo-6,7-dihydro-5H-pyrrolo[3,4-b]pyridin-2-yl)piperidin-4-yl)oxy)oxazolo[4,5-b]pyridin-2(3H)-one] | 3470 nM |
| COc1ccc(OC2CCN(c3nc4c(cc3C)C(=O)N[C@H]4CO)CC2)cn1 (single isomer, unassigned) [Example 271A] | 941 nM |
| Cc1cc2c(nc1N1CC[C@@H](Oc3ccccc3)[C@@H](F)C1)CN(C(C)C)C2=O [Example 248, 2-((3S,4R)-3-fluoro-4-phenoxypiperidin-1-yl)-6-isopropyl-3-methyl-6,7-dihydro-5H-pyrrolo[3,4-b]pyridin-5-one] | 88 nM |
| Cc1cc2c(nc1N1CCC(OC[C@@]3(C)C[C@@H]3F)CC1)CNC2=O (single isomer, unassigned) [Example 160D] | 37 nM |
| Cc1c(N2CCC(Oc3ccccc3)CC2)nc2c(c1C)C(=O)N(CCO)C2 [Example 265, 6-(2-hydroxyethyl)-3,4-dimethyl-2-(4-phenoxypiperidin-1-yl)-6,7-dihydro-5H-pyrrolo[3,4-b]pyridin-5-one] | 46 nM |
| Cc1cc2c(nc1N1CC[C@@H](Oc3cnc4c(c3)COC4)[C@H](F)C1)CNC2=O [Example 48A, 2-((3R,4R)-4-((5,7-dihydrofuro[3,4-b]pyridin-3-yl)oxy)-3-fluoropiperidin-1-yl)-3-methyl-6,7-dihydro-5H-pyrrolo[3,4-b]pyridin-5-one] | 67 nM |
| COc1ccc(OC2[C@@H]3C[C@H]2CN(c2nc4c(cc2C)C(=O)NC4)C3)cn1 (single isomer, unassigned) [Example 185B] | 2530 nM |
| Cc1c(N2CC[C@@H](OCC3(C)CC3)[C@H](F)C2)nc2c(c1C)C(=O)NC2 [Example 174A, 2-((3R,4R)-3-fluoro-4-((1-methylcyclopropyl)meth-oxy)piperidin-1-yl)-3,4-dimethyl-6,7-dihydro-5H-pyrrolo[3,4-b]pyridin-5-one] | 22 nM |
| CC(=O)NCCOc1ccc(OC2CCN(c3nc4c(cc3C)C(=O)NC4)CC2)cn1 [Example 174, N-(2-((5-((1-(3-methyl-5-oxo-6,7-dihydro-5H-pyrrolo[3,4-b]pyridin-2-yl)piperidin-4-yl)oxy)pyridin-2-yl)oxy)ethyl)acetamide] | 45 nM |
| Cc1cc2c(nc1N1CCC(OCC3CCOC3)CC1)CNC2=O (centres unmarked) [Example 177, 3-methyl-2-(4-((tetrahydrofuran-3-yl)methoxy)piperidin-1-yl)-6,7-dihydro-5H-pyrrolo[3,4-b]pyridin-5-one] | 1810 nM |
| COc1ccc(OC2CCN(c3nc4c(c(C(F)F)c3C)C(=O)NC4)CC2)cn1 [Example 307A, 4-(difluoromethyl)-2-(4-((6-methoxypyridin-3-yl)oxy)piperidin-1-yl)-3-methyl-6,7-dihydro-5H-pyrrolo[3,4-b]pyridin-5-one] | 279 nM |
| Cc1cc2c(nc1N1CCC(Oc3cnc4[nH]ncc4c3)CC1)CNC2=O [Example 206, 2-(4-((1H-pyrazolo[3,4-b]pyridin-5-yl)oxy)piperidin-1-pyrazolo[3,4-b]yl)-3-methyl-6,7-dihydro-5H-pyrrolo[3,4-b]pyridin-5-one] | 589 nM |
| Cc1cc2c(nc1N1CCC(OCC(C)(C)C)CC1)CNC2=O [Example 182, 3-methyl-2-(4-(neopentyloxy)piperidin-1-yl)-6,7-dihydro-5H-pyrrolo[3,4-b]pyridin-5-one] | 3790 nM |
| CCc1cc2c(nc1N1CCC(OCC3(C)CC3)CC1)CN(CCO)C2=O [Example 268, 3-ethyl-6-(2-hydroxyethyl)-2-(4-((1-methylcyclopropyl)methoxy)piperidin-1-yl)-6,7-dihydro-5H-pyrrolo[3,4-b]pyridin-5-one] | 87 nM |
| CCc1cc2c(nc1N1CCC(Oc3cncc(C)c3)CC1)CNC2=O [Example 173A, 3-ethyl-2-(4-((5-methylpyridin-3-yl)oxy)piperidin-1-yl)-6,7-dihydro-5H-pyrrolo[3,4-b]pyridin-5-one] | 207 nM |
| Cc1cc2c(nc1N1CC[C@H](Oc3cccc(C#N)c3)[C@H](F)C1)CNC2=O [Example 19, 3-(((3R,4S)-3-fluoro-1-(3-methyl-5-oxo-6,7-dihydro-5H-pyrrolo[3,4-b]pyridin-2-yl)piperidin-4-yl)oxy)benzonitrile] | 57 nM |
| Cc1cc2c(nc1N1CCC(Oc3ccc4c(c3)COC4)CC1)CNC2=O [Example 159, 2-[4-(1,3-Dihydro-2-benzofuran-5-yloxy)piperidin-1-yl]-3-methyl-6,7-dihydro-5H-pyrrolo[3,4-b]pyridin-5-one] | 28 nM |
| Cc1nc2ccc(OC3CCN(c4nc5c(cc4C)C(=O)NC5)CC3)cc2s1 [Example 122, 3-methyl-2-(4-((2-methylbenzo[d]thiazol-6-yl)oxy)piperidin-1-yl)-6,7-dihydro-5H-pyrrolo[3,4-b]pyridin-5-one] | 2110 nM |
| Cc1cc2c(nc1N1CCC(Oc3ccc(O)nc3)CC1)CNC2=O [Example 326, 2-(4-((6-Hydroxypyridin-3-yl)ox)piperidin-1-yl)-3-methyl-6,7-dihydro-5H-pyrrolo[3,4-b]pyridin-5-one] | 1660 nM |
| Cc1cc2c(nc1N1CCC(OCC3(C)CC3)CC1)CNC2=O [Example 176, 3-methyl-2-(4-((1-methylcyclopropyl)meth-oxy)piperidin-1-yl)-6,7-dihydro-5H-pyrrolo[3,4-b]pyridin-5-one] | 39 nM |
| Cc1cc2c(nc1N1CC[C@@H](Oc3ccc4c(c3)COC4)[C@H](F)C1)[C@H](CO)N(C)C2=O [Example 279A, (R)-2-((3R,4R)-4-((1,3-dihydro-2-benzofuran-5-yl)oxy)-3-fluoropiperidin-1-yl)-7-(hydroxymethyl)-3,6-dimethyl-6,7-dihydro-5H-pyrrolo[3,4-b]pyridin-5-one] | 909 nM |
| Cc1cc2c(nc1N1CC[C@@H](Oc3ccc(F)cc3)[C@@H](F)C1)CNC2=O [Example 196, 2-((3S,4R)-3-fluoro-4-(4-fluorophenoxy)piperidin-1-yl)-3-methyl-6,7-dihydro-5H-pyrrolo[3,4-b]pyridin-5-one] | 22 nM |
| CO[C@H]1Cc2ccc(OC3CCN(c4nc5c(c(C)c4C)C(=O)NC5)CC3)cc2C1 [Example 335B, (5)-2-(4-((2-methoxy-2,3-dihydro-1H-inden-5-yl)oxy)piperidin-1-yl)-3,4-dimethyl-6,7-dihydro-5H-pyrrolo[3,4-b]pyridin-5-one] | 259 nM |
| Cc1cc2c(nc1N1CCC(Oc3ccc(F)cc3)CC1)CN(C)C2=O [Example 253, 2-(4-(4-fluorophenoxy)piperidin-1-yl)-3,6-dimethyl-6,7-dihydro-5H-pyrrolo[3,4-b]pyridin-5-one] | 49 nM |
| Cc1cc2c(nc1N1CCC(Oc3ccc4c(c3)CS(=O)(=O)C4)CC1)CNC2=O [Example 208A, 2-(4-((2,2-dioxido-1,3-dihydrobenzo[c]thio-phen-5-yl)oxy)piperidin-1-yl)-3-methyl-6,7-dihydro-5H-pyrrolo[3,4-b]pyridin-5-one] | 123 nM |
| COc1ccc(OC2CCN(c3nc4c(cc3C)C(=O)N(C(C)C)C4)CC2)cn1 [Example 245, 6-isopropyl-2-(4-((6-methoxypyridin-3-yl)oxy)piperidin-1-yl)-3-methyl-6,7-dihydro-5H-pyrrolo[3,4-b]pyridin-5-one] | 75 nM |
